{"source": "patent US10751373B2", "about": "“PD-L1 expressing hematopoietic stem cells and uses” (The Children's Medical Center Corporation, priority 2015, dated 2020)", "molecules": {"B1": {"name": "hrG-CSF: granulocyte colony stimulating factor (protein, UniProt P09919 31-207, looked up)", "Granulocyte …": "TPLGPASSLPQSFLLKCLEQVRKIQGDGAALQEKLVSECATYKLCHPEELVLLGHSLGIPWAPLSSCPSQALQLAGCLSQLHSGLFLYQGLLQALEGISPELGPTLDTLQLDVADFATTIWQQMEELGMAPALQPTQGAMPAFASAFQRRAGGVLVASHLQSFLEVSYRVLRHLAQP"}}, "key": {"[1]": {"tested_on": "Lin^−c-Kit^+Sca-1^+ cells", "protocol": "(§1) We evaluated the characteristics of CXCR4 antagonist-mobilized HSCs by FACS analysis. Lin^−c-Kit^+Sca-1^+ cells were sorted from islet-transplanted or naïve CXCR4 antagonist-treated mice after 7 and 14 days of treatment. […] To evaluate the immunoregulatory role of PD-L1 in murine HSCs, we investigated the effect of mobilized HSCs from WT and PD-L1 KO mice on the alloimmune response in vitro. A standard MLR assay was performed in which HSCs (from WT B6 or PD-L1 KO mice) were syngeneic to responder cells (CD4^+ cells from B6) but allogeneic to bone marrow-derived DCs (from BALB/c). […] The percentage of peripheral PD-L1^+ KLS in 10-week-old NOD and B6 mice was evaluated by FACS. […] We performed a pilot study to assess the feasibility of generation of PD-L1^+ HSCs in vitro by pharmacologic approach. KLS cells were isolated from splenocytes of B6 and NOD mice by magnetic beads and cultured with standard stem cell medium plus PGE2 (2 μl, 10 μM)."}, "CD34^+ cells [2]": {"tested_on": "CD34^+ cells", "from_the_text": "To assess whether mobilization alters expression of PD-L1 on HSCs we studied the immune phenotype of HSCs before and after mobilization with anti-CXCR4 in 5 healthy subjects and 8 individuals with T1D.\nBlood samples were obtained from new onset diabetic individuals (New-onset T1D), long-standing diabetic individuals (T1D) and healthy individuals (CTRL) in accordance with The San Raffaele Scientific Research Institute under an Institutional Review Board committee approval. Peripheral blood mononuclear cells (PBMC) fractions were isolated by Ficoll density gradient centrifugation for cell culturing experiments. Additional blood samples were obtained from T1D subjects and CTRL at baseline before treatment and 6 hours after treatment with CXCR4-antagonist (Mozobil; Sanofi) at the dose of 0.24 mg/kg body weight in accordance with the Institution Review Board Committee of Padova (2996P) and was performed in accordance with the Declaration of Helsinki (Clinical trial registered on clinicaltrials.gov (NCT02056210)). Patients with Type 1 Diabetes aged 18-65 years were recruited among those referred to the diabetes outpatient clinic of the University Hospital of Padova. Individuals without diabetes aged 18-65 years were recruited from those referred to the same outpatient clinic for screening of other metabolic diseases. All provided written informed consent. […] Women with childbearing potential could participate in the study if on oral contraception, and a negative pregnancy test was required before study entry. […] All medications for the treatment of diabetes and for other medical conditions were allowed during the study.\nTo assess PD-L1, PD-L2 and PD-1 expression on human HSCs, fresh blood collected from healthy individuals, T1D and new-onset T1D individuals was stained with PE-Cy5.5 anti-human CD34, PE anti-human PD-L1 or PD-L2 or PD-1 (BD Biosciences). […]"}, "KLS cells": {"tested_on": "KLS cells", "test": "In vitro culture of murine KLS cells with PGE2, PD-L1+ HSCs by FACS", "type": "cell-based", "conditions": "KLS of B6 and NOD mice; PGE2 (2 μl, 10 μM); after 8 days", "protocol": "as §1"}, "CD34^+ cells [3]": {"tested_on": "CD34^+ cells", "test": "Ex vivo culture of human CD34+ cells with PGE2, PD-L1 expression by FACS", "type": "cell-based", "protocol": "CD34^+ cells were isolated from patients (20 ml of blood) using magnetic beads and ˜1×10^6 cells were plated in a U-bottom 96-well plate with 200 μl of the indicated medium. STFIA medium was defined as serum-free medium supplemented with 10 μg/ml heparin, 10 ng/ml human SCF, 20 ng/ml human TPO, 10 ng/ml human FGF-1, 100 ng/ml IGFBP2, and 500 ng/ml Angptl3. PGE2 was added the culture at 0 h, 24 h, 72 h and 6 days. An aliquot of 2 μl of diluted PGE2 at a concentration of 10 μM was added to the 200 μl of each well in the 96-well plate. The approximate final concentration of PGE2 in each well is 0.1 μM. Therefore, the cells are exposed to ˜0.1 μM of PGE2. The periodic addition of PGE2 at 24 h, 72 h and 6 days serves to maintain the PGE2 in the culture media. Cells were cultured for 7 days at 37° C. in 5% CO2 and the normal level of O2.\nAlternatively, cells are cultured in the same conditions for 48 h in the absence of PGE2, after which and PGE2 is added and then later at 24 h after the initial additional. PGE2 is added to the same approximate final concentration of PGE2 of 0.1 μM. We typically observed a ˜10-fold increase of CD34^+PD-L1^+ of cells after 8 days of culture when compared with a cell culture with the same medium cultured for the same time in the same conditions with cells obtained from the same subjects but without addition of PGE2.\nHuman: human HSCs were cultured using StemSpan supplemented with human stem cell growth factors as previously reported (22). Briefly, CD34^+ cells were plated at 5×10^5 cells/ml in supplemented StemSpan on a 96-well plate, at 200 μl/well for 7 days. HSCs were pulsed with PGE2 as described in murine experiments. PD-L1^+ HSCs were quantified by FACS analysis at different timepoints and at the end of the procedure."}, "CD34+ cells": {"tested_on": "CD34+ cells", "test": "HSC mobilization with hrG-CSF (trial NCT01102699)", "type": "in vivo, human", "conditions": "5 μg/kg"}, "[4]": {"conditions": "after 7 and 14 days of treatment"}}, "note": "Where two headings read alike, the source gives them in different places.", "data": [{"molecule": "c1cc(CN2CCCNCCNCCCNCC2)ccc1CN1CCCNCCNCCCNCC1", "note": "[CXCR4 antagonist, plerixafor]", "values": [{"measurement": "PD-L1^+ HSCs in bone marrow", "setting": "[1]; B6 islet-transplanted mice, 6 h after initiation of treatment", "value": "did not increase"}, {"measurement": "CXCR4 expressed by extracted HSCs", "setting": "[1]; [4]", "value": "38.4±4.2", "unit": "%"}, {"measurement": "PD-L1 expressed by mobilized HSCs", "setting": "[1]; [4]", "value": "58.0±7.1", "unit": "%"}, {"measurement": "percentage of CD34^+ PD-L1^+ cells after mobilization", "setting": "CD34^+ cells [2]; 5 controls and 8 T1D individuals", "value": "decrease"}, {"measurement": "PD-L1 expression on CD34^+ cells after mobilization", "setting": "CD34^+ cells [2]; T1D individuals (n=8), before 1.5±0.8", "value": "4.7±1.5"}, {"measurement": "PD-L1 expression on CD34^+ cells after mobilization", "setting": "CD34^+ cells [2]; healthy subjects (n=5), before 0.6±0.2", "value": "6.2±0.6"}]}, {"molecule": "CCCCC[C@H](O)/C=C/[C@H]1[C@H](O)CC(=O)[C@@H]1C/C=C\\CCCC(=O)O", "note": "[PGE2, prostaglandin E2]", "values": [{"measurement": "increase in the PD-L1^+ HSCs", "setting": "KLS cells", "value": "~30", "unit": "% fold"}, {"measurement": "increase in the percentage of PD-L1^+ HSCs", "setting": "CD34^+ cells [3]; CD34+ cells of T1D individuals (n=10), after 7 days", "value": "~8", "unit": "times fold"}, {"measurement": "increased expression of PD-L1 as compared to baseline", "setting": "CD34^+ cells [3]; PGE2 culture protocol", "value": "at least 5 fold"}, {"measurement": "increase of CD34^+PD-L1^+ of cells", "setting": "CD34^+ cells [3]; PGE2 ~0.1 μM, after 8 days of culture vs same culture without PGE2", "value": "~10", "unit": "fold"}]}, {"molecule": "B1", "values": [{"measurement": "CD34+ cell mobilization", "setting": "CD34+ cells; T1D individuals", "value": "impaired mobilization"}, {"measurement": "CD34+ cell mobilization", "setting": "CD34+ cells; healthy controls", "value": "significantly increased"}]}]}
